Test results from paper PMC6286156 (Cell Calcium, 2018).
Counter-ions that a name gives are not always drawn.

Key:
[1] = system: NAADP-evoked Ca^2+ release; test: Primary screen of NAADP-evoked Ca2+ release in sea urchin egg homogenate; type: biochemical, Strongylocentrotus purpuratus; conditions: for Effect on NAADP-evoked Ca2+ signal in primary screen (in words): 25 μM; for 1° Screen (sea urchin) Ca^2+ release (% NAADP): peak NAADP-evoked Ca2+ release as % of control NAADP response: compound 25 μM, 6 min preincubation, NAADP 167 nM
[2] = system: NAADP-evoked Ca^2+ release; type: biochemical, Strongylocentrotus purpuratus; conditions: for 2° Screen (sea urchin) Ca^2+ release log(IC50): printed as log(IC50), negative values, molar implied, NAADP 70 nM; for IC50: read-out: IC50 for inhibition of NAADP-evoked Ca2+ release
[3] = system: specific ^32P-NAADP binding in sea urchin egg homogenates; test: 32P-NAADP radioligand binding in sea urchin egg homogenate; set-up: species or system Strongylocentrotus purpuratus; conditions: drug 30 μM, specific 32P-NAADP binding relative to vehicle
[4] = system: lysosomal Ca^2+ content, U2OS cells; test: Counterscreen: GPN-evoked lysosomal Ca2+ release; type: cell-based, human; conditions: for Counterscreen (human cells) Ca^2+ release (% GPN) / Effect on GPN-mobilizable Ca2+ and LysoTracker (LTR) staining (in words): drug 30 μM; for Counterscreen (human cells) Ca^2+ release (% GPN): GPN 300 μM, peak fluo-4 F/F0; for activity at 30 µM: Homo sapiens, read-out: Counterscreen (human cells) Ca^2+ release (% GPN)
[5] = system: lysosomal labelling (LysoTracker Red), U2OS cells; test: Counterscreen: LysoTracker Red; type: cell-based, human; conditions: for Counterscreen (human cells) LTR signal (% control): drug 30 μM, minimum LTR F/F0 before GPN; for activity at 30 µM: Homo sapiens, read-out: Counterscreen (human cells) LTR signal (% control)
[6] = system: NAADP-evoked Ca^2+ signals; conditions: cited from earlier work
IP3-evoked Ca^2+ release = type: biochemical, Strongylocentrotus purpuratus
[7] = system: cADPR-evoked Ca^2+ release; type: biochemical, Strongylocentrotus purpuratus
Ebola = conditions: mouse, in vivo; cited from earlier work

Compound	1° Screen (sea urchin) Ca^2+ release (% NAADP): peak NAADP-evoked Ca2+ release as % of control NAADP response [1]	2° Screen (sea urchin) Ca^2+ release log(IC50) [2]	2° Screen (sea urchin) NAADP binding (% inhibition) [3]	activity at 30 µM [4]	activity at 30 µM [5]	further results
O=C1NC(=O)C(c2ccccc2)(c2ccccc2)N1 [phenytoin]						Effect on NAADP-evoked Ca2+ signal in primary screen (in words) [1]: potentiation
CC1(C)C(=O)N(CCN2CCC(C(=O)c3ccc(F)cc3)CC2)c2ccccc21.Cl [LY-310,762 hydrochloride]	16.3 ± 8.7%	−4.75 ± 0.05	−2.8 ± 3.8%			Counterscreen (human cells) Ca^2+ release (% GPN) [4]: 108.1 ± 11%; Counterscreen (human cells) LTR signal (% control) [5]: 90.2 ± 8%
COc1ccc([C@H]2N[C@H](C(=O)O)Cc3c2[nH]c2ccccc32)cc1CN1CCN(c2ccccc2F)CC1 (relative stereo) [trans-ned-19, trans-Ned-19]						IC50 [2]: 156 ± 3 µM
CC(=O)SCC(Cc1ccccc1)C(=O)NCC(=O)OCc1ccccc1 (stereo not drawn) [Racecadotril, racecadotril]	11.5 ± 6.0%	−5.80 ± 0.03	−8.3 ± 0.2%	110 ± 4%	92.8 ± 3%	IC50 [2]: 1.6 ± 0.1 µM; Effect on GPN-mobilizable Ca2+ and LysoTracker (LTR) staining (in words) [4]: no effect
O=C1C[C@@H](c2ccc(O)cc2)Oc2cc(O)cc(O)c21 [naringenin]						IC50 [6]: ~180 µM
Cc1nc(N=Nc2ccc(S(=O)(=O)[O-])cc2S(=O)(=O)[O-])c(COP(=O)([O-])[O-])c(C=O)c1O.[Na+].[Na+].[Na+].[Na+] [PPADS, PPADS tetrasodium salt]		−5.27 ± 0.01	84.8 ± 1.6%			IC50 [2]: 5.4 ± 0.2 µM; Counterscreen (human cells) Ca^2+ release (% GPN) [4]: 91.3 ± 16%; Counterscreen (human cells) LTR signal (% control) [5]: 92.1 ± 7%
CCN(CC)CCCCCCCCOC(=O)c1cc(OC)c(OC)c(OC)c1.Cl [TMB-8 hydrochloride]	18.3 ± 3.2%	−5.12 ± 0.06	−16.6 ± 10.3%			Counterscreen (human cells) Ca^2+ release (% GPN) [4]: 68.8 ± 5%; Counterscreen (human cells) LTR signal (% control) [5]: 71.8 ± 8%
CSc1ccc2c(c1)N(CCC1CCCCN1C)c1ccccc1S2 (stereo not drawn) [Thioridazine hydrochloride, thioridazine hydrochloride]				20.5 ± 12%	26.2 ± 18%	
CN1CCC[C@@H]1CCO[C@](C)(c1ccccc1)c1ccc(Cl)cc1 [Clemastine fumarate, clemastine fumarate]				69.5 ± 13%	70.9 ± 15%	
ST-148	16.7 ± 3.5%	−4.80 ± 0.08	0.2 ± 4.3%			Counterscreen (human cells) Ca^2+ release (% GPN) [4]: 66.6 ± 5%; Counterscreen (human cells) LTR signal (% control) [5]: 69.8 ± 13%
CN1CCN(CCCN2c3ccccc3Sc3ccc(Cl)cc32)CC1 [Prochlorperazine dimaleate, prochlorperazine dimaleate salt]				20.2 ± 17%	24.3 ± 14%	
CCN(CC)CC#CCOC(=O)C(O)(c1ccccc1)C1CCCCC1 (stereo not drawn) [Oxybutynin Chloride, oxybutynin chloride]				62.1 ± 4%	59.2 ± 9%	
CCCCCCCCCC(=O)NC(CN1CCOCC1)C(O)c1ccccc1.Cl (stereo not drawn) [PDMP, PDMP hydrochloride]	18.3 ± 17%	−4.80 ± 0.05	6.0 ± 0.5%			Effect on GPN-mobilizable Ca2+ and LysoTracker (LTR) staining (in words) [4]: no effect; Counterscreen (human cells) Ca^2+ release (% GPN) [4]: 91.4 ± 2%; Counterscreen (human cells) LTR signal (% control) [5]: 91.6 ± 13%
Cc1nc(N=Nc2cc(S(=O)(=O)O)c3cc([N+](=O)[O-])cc(S(=O)(=O)O)c3c2)c(COP(=O)(O)O)c(C=O)c1O [PPNDS]	22 ± 4%					
Cl.Cl.c1ccc(CCCN2CCN(CCOC(c3ccccc3)c3ccccc3)CC2)cc1 [GBR-12935 dihydrochloride]	10.7 ± 7.0%	−4.90 ± 0.13	3.4 ± 3.3%			Counterscreen (human cells) Ca^2+ release (% GPN) [4]: 61.1 ± 15%; Counterscreen (human cells) LTR signal (% control) [5]: 67.5 ± 11%
COc1ccc([C@@H]2Sc3ccccc3N(CCN(C)C)C(=O)[C@@H]2OC(C)=O)cc1 [diltiazem]						Concentration acting as TPC pore blocker [6]: < 10 u M
CN1CCN(CCCN2c3ccccc3Sc3ccc(C(F)(F)F)cc32)CC1 [Trifluoperazine dihydrochloride, trifluoperazine dihydrochloride]	19.7 ± 15%	−5.13 ± 0.10	−13.7 ± 13.7%	5.8 ± 11%	15.2 ± 9%	
OCc1cc(C(O)CNCCCCCCOCCCCc2ccccc2)ccc1O (stereo not drawn) [Salmeterol xinafolate, salmeterol xinafoate]	18.7 ± 12%	−4.94 ± 0.04	−2.3 ± 13.6%	97.4 ± 5%	97.3 ± 7%	
CCS(=O)(=O)Nc1cccc(C(=C2CCCCC2)c2cnc[nH]2)c1 [A-315456]	13.0 ± 5.0%	−4.44 ± 0.01	8.4 ± 1.2%			Effect on GPN-mobilizable Ca2+ and LysoTracker (LTR) staining (in words) [4]: no effect; Counterscreen (human cells) Ca^2+ release (% GPN) [4]: 97.1 ± 3%; Counterscreen (human cells) LTR signal (% control) [5]: 95.2 ± 4%
COc1ccc(CCCOC(Cn2ccnc2)c2ccc(OC)cc2)cc1 (stereo not drawn) [SKF 96,365, SKF 96365 hydrochloride]	6.3 ± 4.5%	−5.29 ± 0.06	−5.3 ± 5.7%	98.1 ± 6%	98.5 ± 5%	Effect on GPN-mobilizable Ca2+ and LysoTracker (LTR) staining (in words) [4]: no effect
C/C=C(/C)C(=O)O[C@H]1C(C)=C2[C@H]([C@@H]1OC(=O)CCCCCCC)[C@@](C)(OC(C)=O)C[C@H](OC(=O)CCC)[C@@]1(O)[C@H]2OC(=O)[C@@]1(C)O [thapsigargin]						Effect on NAADP-evoked Ca2+ signal in primary screen (in words) [1]: did not abrogate NAADP responsiveness
COC(=O)C1=C(C)NC(C)=C(C(=O)OC)C1c1ccccc1[N+](=O)[O-] [nifedipine]						Concentration acting as TPC pore blocker [6]: < 10 u M
COc1cc(C(=O)OCCCN2CCCN(CCCOC(=O)c3cc(OC)c(OC)c(OC)c3)CC2)cc(OC)c1OC [Dilazep hydrochloride, dilazep hydrochloride]	16.0 ± 3.0%	−5.03 ± 0.11	−10.9 ± 8.1%	65.1 ± 5%	69.6 ± 9%	
CO/C1=C\C(C)=C\[C@@H](C)[C@@H](O)[C@@H](C)C/C(C)=C/C=C/[C@H](OC)[C@@H]([C@@H](C)[C@@H](O)[C@H](C)[C@@]2(O)C[C@@H](O)[C@H](C)[C@@H](C(C)C)O2)OC1=O [bafilomycin, bafilomycin A1]						Effect on GPN-mobilizable Ca2+ and LysoTracker (LTR) staining (in words) [4]: penetrant effects
OCCN1CCN(CCCN2c3ccccc3Sc3ccc(C(F)(F)F)cc32)CC1 [Fluphenazine dihydrochloride, fluphenazine dihydrochloride]				67.6 ± 14%	69.8 ± 10%	
COc1ccc2cc1Oc1ccc(cc1)C[C@H]1c3cc(c(OC)cc3CCN1C)Oc1c(O)c(OC)cc3c1[C@H](C2)N(C)CC3 [Fangchinoline]						Peak amplitude of NAADP-evoked Ca2+ release, % of control response [2]: 47 ± 2%; Effect on size of IP3-evoked Ca2+ transients (in words) (IP3-evoked Ca^2+ release): lesser effects; Effect on size of cADPR-evoked Ca2+ transients (in words) [7]: lesser effects
Cl.Fc1ccc(C(OCCCc2c[nH]cn2)c2ccc(F)cc2)cc1 [IPFME, 3-(1H-Imidazol-4-yl)propyl di(p-fluorophenyl)methyl ether hydrochloride]	13.7 ± 11%	−5.22 ± 0.08	2.9 ± 2.1%	51.3 ± 18%	56.9 ± 8%	
COc1ccc2cc1Oc1ccc(cc1)C[C@H]1c3cc(c(OC)cc3CCN1C)Oc1c(OC)c(OC)cc3c1[C@H](C2)N(C)CC3 [tetrandrine]						Concentration range acting as TPC pore blocker (in words) [6]: sub-micromolar range; Survival (Ebola): improved survival
